Measured values as given in PubChem BioAssay (NCI).
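Growth conditions: 96-well plates. Treatment: test compound, 48 hours, 5 concentrations. Analysis: linear interpolation between bracketing concentrations; unreached endpoints set to highest concentration. At the TGI there is no net growth.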

Assays:
Assay in all cases: NCI-60 cell line screen, 48 h
[1] = test system: 786-0 renal
[2] = test system: A498 renal
[3] = test system: A549 NSCLC
[4] = test system: ACHN renal
[5] = test system: CAKI-1 renal
[6] = test system: CCRF-CEM leukemia
[7] = test system: COLO 205 colon
[8] = test system: DLD-1 colon
[9] = test system: DMS 114 small cell lung
[10] = test system: DMS 273 small cell lung
[11] = test system: EKVX NSCLC
[12] = test system: HCC-2998 colon
[13] = test system: HCT-116 colon
[14] = test system: HCT-15 colon
[15] = test system: HL-60(TB) leukemia
[16] = test system: HOP-62 NSCLC
[17] = test system: HOP-92 NSCLC
[18] = test system: HT29 colon
[19] = test system: IGROV1 ovarian
[20] = test system: K-562 leukemia
[21] = test system: KM12 colon
[22] = test system: KM20L2 colon
[23] = test system: LOX IMVI melanoma
[24] = test system: LXFL 529 NSCLC
[25] = test system: M14 melanoma
[26] = test system: M19-MEL melanoma
[27] = test system: MALME-3M melanoma
[28] = test system: NCI-H226 lung
[29] = test system: NCI-H23 lung
[30] = test system: NCI-H460 lung
[31] = test system: NCI-H522 lung
[32] = test system: OVCAR-3 ovarian
[33] = test system: OVCAR-4 ovarian
[34] = test system: OVCAR-5 ovarian
[35] = test system: OVCAR-8 ovarian
[36] = test system: RPMI-8226 leukemia
[37] = test system: RXF 393 renal
[38] = test system: RXF-631 renal
[39] = test system: SF-268 CNS
[40] = test system: SF-295 CNS
[41] = test system: SF-539 CNS
[42] = test system: SK-MEL-2 melanoma
[43] = test system: SK-MEL-5 melanoma
[44] = test system: SK-OV-3 ovarian
[45] = test system: SN12C renal
[46] = test system: SNB-19 CNS
[47] = test system: SNB-75 CNS
[48] = test system: SNB-78 CNS
[49] = test system: SW-620 colon
[50] = test system: TK-10 renal
[51] = test system: U251 CNS
[52] = test system: UACC-257 melanoma
[53] = test system: UACC-62 melanoma
[54] = test system: UO-31 renal
[55] = test system: XF 498 CNS
[56] = test system: MOLT-4 leukemia
[57] = test system: SK-MEL-28 melanoma
[58] = test system: SR leukemia

O=C(Cc1nc2ccccc2o1)C(=O)Nc1ccccc1C(F)(F)F
TGI [1]: > 100 µM | TGI [2]: > 100 µM | TGI [3]: > 100 µM | TGI [4]: > 100 µM | TGI [5]: > 100 µM | TGI [6]: > 100 µM | TGI [7]: > 100 µM | TGI [8]: > 100 µM | TGI [9]: > 100 µM | TGI [10]: > 100 µM | TGI [11]: > 100 µM | TGI [12]: > 100 µM | TGI [13]: > 100 µM | TGI [14]: > 100 µM | TGI [15]: > 100 µM | TGI [16]: > 100 µM | TGI [17]: > 100 µM | TGI [18]: > 100 µM | TGI [19]: > 100 µM | TGI [20]: > 100 µM | TGI [21]: > 100 µM | TGI [22]: > 100 µM | TGI [23]: > 100 µM | TGI [24]: > 100 µM | TGI [25]: > 100 µM | TGI [26]: > 100 µM | TGI [27]: > 100 µM | TGI [28]: > 100 µM | TGI [29]: > 100 µM | TGI [30]: > 100 µM | TGI [31]: > 100 µM | TGI [32]: > 100 µM | TGI [33]: > 100 µM | TGI [34]: > 100 µM | TGI [35]: > 100 µM | TGI [36]: > 100 µM | TGI [37]: > 100 µM | TGI [38]: > 100 µM | TGI [39]: > 100 µM | TGI [40]: > 100 µM | TGI [41]: > 100 µM | TGI [42]: > 100 µM | TGI [43]: > 100 µM | TGI [44]: > 100 µM | TGI [45]: > 100 µM | TGI [46]: > 100 µM | TGI [47]: > 100 µM | TGI [48]: > 100 µM | TGI [49]: > 100 µM | TGI [50]: > 100 µM | TGI [51]: > 100 µM | TGI [52]: > 100 µM | TGI [53]: > 100 µM | TGI [54]: > 100 µM | TGI [55]: > 100 µM

COC1=CC(=Nc2c(Cl)cc(Cl)cc2OC(=O)c2ccc([N+](=O)[O-])cc2)C=C(OC)C1=O
TGI [1]: 28 µM | TGI [3]: 23.4 µM | TGI [4]: 22.6 µM | TGI [5]: 31.7 µM | TGI [6]: > 25.9 µM | TGI [7]: 33.6 µM | TGI [8]: 30 µM | TGI [9]: 8.52 µM | TGI [10]: 30.5 µM | TGI [11]: 29.5 µM | TGI [12]: 32.4 µM | TGI [13]: 18.9 µM | TGI [14]: 20.8 µM | TGI [15]: 12.1 µM | TGI [16]: 36.2 µM | TGI [17]: 14.8 µM | TGI [18]: 33.5 µM | TGI [19]: 31.2 µM | TGI [20]: 27 µM | TGI [21]: 29.4 µM | TGI [22]: 32.8 µM | TGI [23]: 5.67 µM | TGI [24]: 18.5 µM | TGI [25]: 25.8 µM | TGI [26]: 10.8 µM | TGI [27]: 28.9 µM | TGI [56]: 26.7 µM | TGI [28]: 28.7 µM | TGI [29]: 22.9 µM | TGI [30]: 31.3 µM | TGI [31]: 23.6 µM | TGI [32]: 20.9 µM | TGI [33]: 21.9 µM | TGI [34]: 33.7 µM | TGI [35]: 20.2 µM | TGI [36]: > 39.1 µM | TGI [37]: 24.6 µM | TGI [38]: 11.1 µM | TGI [39]: 23.2 µM | TGI [40]: 23.7 µM | TGI [41]: 23.4 µM | TGI [42]: 29.9 µM | TGI [57]: 30.5 µM | TGI [43]: 20.4 µM | TGI [44]: 30.8 µM | TGI [45]: 24.3 µM | TGI [46]: 30 µM | TGI [47]: 27.8 µM | TGI [48]: 56.9 µM | TGI [58]: 15.3 µM | TGI [49]: 26.8 µM | TGI [50]: 37.4 µM | TGI [51]: 27.1 µM | TGI [52]: 24.2 µM | TGI [53]: 15.6 µM | TGI [54]: 24.3 µM | TGI [55]: 21.5 µM
